The record followed here is US7947308B2, “Effervescent powders for inhalation” (priority 2005, dated 2011).

The data set in a line: In vitro aerosol deposition, Mark II Andersen Cascade Impactor (MMAD, FPF, GSD). In kind it is physicochemical. Particulars: spray-dried carrier particles containing ciprofloxacin; UV assay of impactor plates. The source says:
The pulmonary deposition of the empty effervescent carrier particles and the carrier particles containing nanoparticles were investigated in vitro by measuring the Mass Median Aerodynamic Diameter (MMAD) using a Mark II Andersen Cascade Impactor (Thermo Andersen, Smyrna, Ga.) in combination with a new high efficiency inhaler (described in U.S. Patent Application Publication No. 2004/0107963 to Finlay, W. H. & Wang, Z., filed Dec. 2, 2003, entitled “Device and Method for Deagglomeration of Powder for Inhalation”, the contents of which are herein incorporated by reference); Wang, Z., Grgic, B., and Finlay, W. H. (2006) A Dry Powder Inhaler with Reduced Mouth-throat Deposition. […]
The MMAD was calculated by linear interpolation of the cumulative mass distribution to obtain the particle size for which the cumulative mass under this size was 50% (Sham, J.-H., Zhang, Y., Finlay, W. H., Roa, W. H. & Lobenberg, R. (2004) Formulation and characterization of spray-dried powders containing nanoparticles for aerosol delivery to the lung. International Journal of Pharmaceutics. 269: 457-467). […]
Particle size and FPF were determined as noted above in Example 1. The dispersibility and content of ciprofloxacin of the spray-dried powders was determined using a Mark II Andersen impactor. […] The MMAD was calculated by a nonlinear regression fit of a log-normal function to the data. […]

As to `O=C(O)c1cn(C2CC2)c2cc(N3CCNCC3)c(F)cc2c1=O` [ciprofloxacin], the “range size of most of the particles (cascade impactor)” value is reported as 4.9+/−1 μm.
